Measurements reported in patent US20230106523A1, “QUERCETIN ENHANCEMENT FORMULATION” (SMARTDNA PTY LTD, priority 2020, published 2023).
“And” between values parts separate entries of the source, which are not always exact repeats. Identical values can stand only once.

Columns and labels:
[1] = Human trial: blood serum levels of quercetin after ingestion, HPLC-UV; format: in vivo; conditions: human subject, 80 mg quercetin oral
Description: The concentration of quercetin in the blood of a human subject was measured over four hours following ingestion of: • (a) 80 mg quercetin and 200 ml filtered water, • (b) 80 mg quercetin and 200 ml grapefruit extract.
The grapefruit extract consisted of grapefruit juice that was squeezed from the grapefruit with a juicer. The collected juice was freeze-dried and redissolved as a concentrate (4 times) using water for solubilising.
The total amount of 6,7-DHB administered in the grapefruit extract in (b) above was estimated to be about 5.9 mg.
In both experiments, the quercetin was administered as a powder washed down with filtered water.
For the quercetin and grapefruit extract test, the grapefruit extract was taken two hours before the quercetin.
Serum samples were taken from the subject at 15 minute intervals. The samples were extracted into ethyl acetate and the concentration of quercetin determined using HPLC with UV detection at 315 nm. Carbamazepine was used as an internal standard.
A linear relationship for the standard curve was achieved over the range of quercetin standards of 2-150 ng/mL (using weighted linear retgression 1/x^2).
The lower limit of quantification (LLOQ) for the method was determined to be 2 ng/mL (using FDA guidelines for bio-analytical procedures) and the limit of detection was estimated to be 1 ng/mL.

[2] = Rat study: serum quercetin concentration after oral gavage; format: in vivo, Sprague-Dawley rats; conditions: for concentration of quercetin in the serum from individual rats: one column per rat
Description: Rats were administered: • (a) Quercetin • (b) American Ruby Red grapefruit extract • (c) Quercetin and American Ruby Red grapefruit extract • (d) grapefruit extract • (e) grapefruit extract and quercetin
5 groups of 8 male Sprague-Dawley rats, aged approximately 14 weeks, weighing 350-400 gm were used in the study. The rats were bred at Hercus-Taeri Resource Unity. All of the rats were healthy and had no medication history.
1. The quercetin was dissolved in distilled water at 12.0 mg/ml immediately prior to administration.
2. American Ruby Red grapefruit was cut in half and juice obtained by manual squeezing.
The grapefruit extract used was a commercially obtained grapefruit juice.
3. A known volume of each of the grapefruit juices was lyophilized. Once dry, the residue was resuspended in distilled water to 25% of its original volume. This reduced the volume to be gavaged to each rat in the relevant groups to make the quantities of active agents administered as high as practical.
4. The quercetin/grapefruit juice formulations were prepared by dissolving the quercetin in the concentrated juices at 12.0 mg/ml.
GROUP 1. Each animal in this group received quercetin at 15 mg per kg body weight administered by oral gavage.
GROUP 2. Each animal in this group received the concentrated New Zealand grapefruit juice (American Ruby Red) at 2.5 ml per kg body weight administered by oral gavage.
GROUP 3. Each animal in this group received quercetin dissolved in the concentrated New
Zealand grapefruit juice (American Ruby Red) administered by oral gavage. The juice was administered so as to provide 15 mg quercetin per kg body weight.
GROUP 4. Each animal in this group received the concentrated grapefruit juice (prepared by Cedenco Ltd) at 2.5 ml per kg body weight administered by oral gavage.
GROUP 5. Each animal in this group received quercetin dissolved in the concentrated grapefruit juice (prepared by Cedenco Ltd) at 2.5 ml per kg body weight administered by oral gavage. The quercetin was dissolved so that it was administered at 15 mg per kg body weight.
1. A 0.5 ml time zero blood sample was taken from each animal from the lateral saphenous vein. The animals were anaesthetized using Halothane in oxygen (3.5% for knockdown, 2.5 to 3.0% for maintenance). The vein was cannulated. The zero-time blood sample was taken from each group of rats the day before the animals were gavaged. Following the collection of the blood sample, a 0.5 ml aliquot of sterile normal saline was given by intraperitoneal (IP) injection.
2. The test sample was prepared freshly immediately prior to the gavaging of each group of rats. Each animal was weighed and the volume of the test sample to be administered calculated.
3. Each rat was gavaged using proprietary gavaging needles (Popper). Once gavaging was complete the animals were left for 10 minutes before being anaesthetized using Halothane in oxygen (3.5% for knockdown, 2.5 to 3.0% for maintenance).
4. […] After each collection an equal volume of sterile saline was administered to each animal via an IP injection. The blood samples were immediately transferred to serum separating microtainer tubes (Becton Dickinson Cat. No 365956) and left to clot for 30 minutes at room temperature. The tubes were centrifuged at 3000 rpm for 10 minutes in a Beckman J6 centrifuge with a swing-out rotor. The sera were pipetted off and transferred into Eppendorf tubes/cryovials which were stored at −80° C.
The sera samples were sent to the Institute of Environmental Science and Research (ESR) (Kenepuru, Wellington, New Zealand) for quantitation of the concentration of quercetin in each. The detection limit for quercetin in serum was 5 ng/ml.

[3] = cited from earlier work
[4] = cited from earlier work; remark: listed apart in the source

O=c1c(O)c(-c2ccc(O)c(O)c2)oc2cc(O)cc(O)c12 [Quercetin, 2-(3,4-dihydroxyphenyl)-3,5,7-trihydroxy-4H-chromen-4-one]
concentration at 0 min ([1]; time 0 min): 0 ng/mL | concentration at 15 min ([1]; time 15 min): 1 ng/mL | concentration at 30 min ([1]; time 30 min): 2.3 ng/mL | concentration at 45 min ([1]; time 45 min): 3.8 ng/mL | concentration at 60 min ([1]; time 60 min): 3.1 ng/mL | concentration at 75 min ([1]; time 75 min): 1 ng/mL | concentration at 90 min ([1]; time 90 min): 0 ng/mL | concentration at 105 min ([1]; time 105 min): 0 ng/mL | concentration at 120 min ([1]; time 120 min): 0 ng/mL | concentration at 135 min ([1]; time 135 min): 0 ng/mL | concentration at 150 min ([1]; time 150 min): 0 ng/mL | concentration at 165 min ([1]; time 165 min): 0 ng/mL | concentration at 180 min ([1]; time 180 min): 0 ng/mL | concentration at 195 min ([1]; time 195 min): 0 ng/mL | concentration at 210 min ([1]; time 210 min): 0 ng/mL | concentration at 225 min ([1]; time 225 min): 0 ng/mL | concentration at 240 min ([1]; time 240 min): 0 ng/mL | concentration of quercetin in the serum from individual rats ([2]; 0 min (sample taken the day before gavage)): 0 | concentration of quercetin in the serum from individual rats ([2]; 30 min after oral gavage, quercetin 15 mg/kg and/or concentrated juice 2.5 ml/kg): 0 | rats (of eight) showing quercetin in the serum ([2]; 30 minutes after administration): none was detected in any of the animals | concentration of quercetin in the serum from individual rats ([2]; 60 min after oral gavage, quercetin 15 mg/kg and/or concentrated juice 2.5 ml/kg, listed as Quercetin alone): 0 (7×) and 2 | concentration of quercetin in the serum from individual rats ([2]; 90 min after oral gavage, quercetin 15 mg/kg and/or concentrated juice 2.5 ml/kg, listed as Quercetin alone): 0 (7×) and 2 | concentration of quercetin in the serum from individual rats ([2]; 120 min after oral gavage, quercetin 15 mg/kg and/or concentrated juice 2.5 ml/kg, listed as Quercetin alone): 0 (7×) and 2 | bioavailability of active quercetin (duration) ([3]; human studies (Graefe 1999)): no more than 10 minutes | elimination half-life ([3]; humans, after ingesting quercetin foods or supplements): 1 to 2 h | bioavailability of quercetin in humans ([3]; humans): 0-50% | water solubility [4]: low
